# Measured values as given in patent US7598234B2, “Steroid derived antibiotics” (Brigham Young University, priority 1998, dated 2009).
# How the values were obtained:
# Gram-negative bacteria [1] = experiment: MIC of ester and amide side chain compounds (Table 14); format: cell-based; details: strain not given
# Method: (§1) Aliquots of 1 mL of the suspension were added to test tubes containing 1 mL TSB and incrementally varied concentrations of cholic acid derivatives and/or erythromycin or novobiocin. In the sensitization experiments, erythromycin or novobiocin were added 15 minutes later than the cholic acid derivatives. The samples were subjected to stationary incubation at 37° C. for 24 hours. Sample turbidity was determined by measuring absorption at 760 nm (HP 8453 UV-Visible Chemstation, Hewlett Packard). Additionally, an alliquot from each of the samples showing no measurable turbidity was subcultured on TSA plates (alliquots were diluted to provide fewer than 300 CFU). Colonies that grew on the subculture after overnight incubation were counted and the number of CFU/mL in the samples were calculated. The calculated values were compared to the number of CFU/mL in the original inoculum.
# (§2) Ester and amide side chains: Additional compounds, for example, compounds with amide and ester side chains, were tested.
# E. coli (ATCC 10798) [2] = experiment: Sensitization to erythromycin (concentration lowering the MIC of erythromycin), E. coli (ATCC 10798); format: cell-based, Escherichia coli; details: Table 2, E. coli (ATCC 10798)
# Gram-negative bacteria [3] = experiment: Sensitization to erythromycin, ester and amide side chain compounds (Table 14); format: cell-based; details: Table 14; strain not given
# Method: as §1
# (§3) Ability to permeabilize outer membrane: Compounds 11, 106, and 108-114 (FIG. 1) were tested for antibiotic activity. They were also tested for the ability to permeabilize the outer membrane of Gram-negative bacteria, causing sensitization to hydrophobic antibiotics that cannot cross the outer membrane. The permeabilization of the outer membrane was measured using erythromycin and novobiocin.
# as §2
# E. coli (ATCC 10798) [4] = experiment: MIC and MBC measurement with E. coli (ATCC 10798); format: cell-based, Escherichia coli; details: Table 1, E. coli (ATCC 10798)
# Outline: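 MIC taken from absorbance at 760 nm after 24 h stationary culture at 37 °C in TSB with stepped concentrations of cholic acid derivatives; in sensitization runs erythromycin or novobiocin followed 15 min later. MBC from TSA subcultures of clear samples, CFU/mL against original inoculum.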
# Gram-negative bacteria [5] = experiment: Sensitization to novobiocin, ester and amide side chain compounds (Table 14); format: cell-based; details: strain not given
# Method: as §1, §3, §2
# [6] = tested on: Salmonella typhimurium ATCC 14028; experiment: Growth inhibition and FIC with rifampicin, Salmonella typhimurium ATCC 14028; format: cell-based; details: Table 13; Salmonella typhimurium ATCC 14028^b; rifampicin (by order) at 0.5, 1.0 or 3.0 μg/mL
# Method: (§4) Alternatively, “fractional inhibitory concentration (FIC)” is also useful for determination of synergy between the compounds of the invention, or the compounds in combination with known antibiotics. FICs can be performed by checkerboard titrations of compounds in one dimension of a microtiter plate, and of antibiotics in the other dimension, for example. The FIC is calculated by looking at the impact of one antibiotic on the MIC of the other and vice versa. […] Preferably, an FIC of less than 0.5 is obtained for synergism. As used herein, FIC can be determined as follows:
# as §1
# (§5) To measure permeabilization, the FIC values for compounds 1, 2, 5, 106, 10, 112, 133, and 134 with erythromycin, novobiocin, and rifampicin were determined. Concentrations of 0.5, 1.0 or 3.0 μg/mL of these antibiotics were used, and the concentrations of the cholic acid derivatives required to inhibit bacterial growth of Gram-negative strains were determined.
# E. coli (ATCC 25922) [7] = experiment: MIC and MBC measurement with E. coli (ATCC 25922); format: cell-based, Escherichia coli; details: ATCC25922; Table 10; Escherichia coli ATCC 25922; read-out: MBC
# Outline: (§6)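 Growth inhibition read as absorbance at 760 nm after 24 h stationary culture at 37 °C in tryptic soy broth containing varied compound levels. Turbidity-free samples were plated on TSA overnight and CFU/mL compared with the starting inoculum for bactericidal endpoint; antibiotic co-additions followed compound by 15 min.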
# [8] = tested on: Klebsiella pneumonia ATCC 13883; experiment: Growth inhibition and FIC with novobiocin, Klebsiella pneumoniae ATCC 13883; format: cell-based; details: Table 12, novobiocin (by order) at 0.5, 1.0 or 3.0 μg/mL
# Method: as §4, §1, §5
# [9] = tested on: Staphylococcus aureus ATCC 25923; experiment: MIC and MBC measurement with Staphylococcus aureus ATCC 25923; format: cell-based; details: ATCC25923; Table 10; Staphylococcus aureus ATCC 25923; read-out: MIC
# Outline: as §6
# [10] = tested on: Pseudomonas aeruginosa (ATCC 27853); experiment: Sensitization to erythromycin, Pseudomonas aeruginosa (ATCC 27853); format: cell-based
# Outline: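 Sensitization measured by the cholic acid derivative concentration inhibiting growth when combined with 0.5, 1.0 or 3.0 μg/mL erythromycin or novobiocin, antibiotic added 15 min after derivative. Incubation 24 h at 37 °C without shaking in TSB; growth by absorbance at 760 nm with CFU plating of non-turbid tubes; synergy expressed as FIC.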
# [11] = tested on: Klebsiella pneumonia ATCC 13883; experiment: Growth inhibition and FIC with rifampicin, Klebsiella pneumoniae ATCC 13883; format: cell-based
# Method: as §4, §1, §5
# [12] = tested on: Salmonella typhimurium ATCC 14028; experiment: MIC and MBC measurement with Salmonella typhimurium ATCC 14028; format: cell-based; details: Salmonella enterica, Table 10, read-out: MBC
# From the text: (§7) General: Microorganisms. Reference strains were purchased from the American Type Culture Collection (Rockville, Md.) or Bactrol disks from Difeo Laboratories (Detroit, Mich.). The following specific ATCC strains were used: 10798 Escherichia coli, 25922 Escherichia coli, 13883 Klebsiella pneumoniae, 27853 Pseudomonas aeruginosa, 14028 Salmonella typhimurium, 29212 Enterococcus faecalis, 25923 Staphylococcus aureus, 19615 Streptococcus pyogenes, and 90028 Candida albicans. Bacterial strains were maintained on Mueller-Hinton agar plates, and Candida albicans was maintained on Sabouraud Dextrose agar plates.
# (§8) Tryptic soy broth (TSB) was made by dissolving 27.5 grams of tryptic soy broth without dextrose (DIFCO Laboratories) in 1 liter of deionized water and sterilizing at 121° C. for 15 minutes. Solid agar (TSA) plates were made by dissolving 6.4 grams of tryptic soy broth and 12 grams of agar (purified grade, Fischer Scientific) in 800 mL of deionized water and sterilizing at 121° C. for 20 minutes. Aliquots (20 mL) of the homogeneous solution were then poured in sterile plastic petri dishes (100×15 mm, Fisher Scientific). Solutions of compounds were made by dissolving the HCl salt of the respective compound into an appropriate amount of deionized and sterilized water followed by microfiltration.
# as §1
# [13] = tested on: Klebsiella pneumonia ATCC 13883; experiment: MIC and MBC measurement with Klebsiella pneumoniae ATCC 13883; format: cell-based; details: Klebsiella pneumoniae, ATCC13883, Table 10, read-out: MBC
# From the text: as §7, §8, §1
# [14] = tested on: Salmonella typhimurium ATCC 14028; experiment: Growth inhibition and FIC with novobiocin, Salmonella typhimurium ATCC 14028; format: cell-based; details: Table 12, novobiocin (by order) at 0.5, 1.0 or 3.0 μg/mL
# Method: as §4, §1, §5
# [15] = remark: listed apart in the source
# Method: (§9) Minimum inhibition concentrations (MIC) and minimum hemolytic concentrations (MHC) were measured as described in Li et al., Antimicrob. Agents. Chemother., 1999, 43, 1347.
# E. coli (ATCC 25922) [16] = experiment: Sensitization to erythromycin, E. coli (ATCC 25922); format: cell-based, Escherichia coli; details: Table 11; Escherichia coli ATCC 25922; erythromycin (by order) at 0.5, 1.0 or 3.0 μg/mL
# Method: FICs can be performed by checkerboard titrations of compounds in one dimension of a microtiter plate, and of antibiotics in the other dimension, for example. The FIC is calculated by looking at the impact of one antibiotic on the MIC of the other and vice versa. […] Preferably, an FIC of less than 0.5 is obtained for synergism. As used herein, FIC can be determined as follows:
# as §1
# Concentrations of 0.5, 1.0 or 3.0 μg/mL of these antibiotics were used, and the concentrations of the cholic acid derivatives required to inhibit bacterial growth of Gram-negative strains were determined.
# as §9
# [17] = tested on: Escherichia coli ATCC 25922; experiment: Growth inhibition and FIC with rifampicin, Escherichia coli ATCC 25922; format: cell-based; details: Table 13, rifampicin (by order) at 0.5, 1.0 or 3.0 μg/mL
# Method: as §4, §1, §5
# [18] = tested on: Pseudomonas aeruginosa ATCC 27853; experiment: Growth inhibition and FIC with rifampicin, Pseudomonas aeruginosa ATCC 27853; format: cell-based; details: Table 13; Pseudomonas aeruginosa ATCC 27853^b; rifampicin (by order) at 0.5, 1.0 or 3.0 μg/mL
# Method: as §4, §1, §5
# [19] = tested on: Pseudomonas aeruginosa (ATCC 27853); experiment: Sensitization to novobiocin, Pseudomonas aeruginosa (ATCC 27853); format: cell-based; details: Table 12; Pseudomonas aeruginosa ATCC 27853; novobiocin (by order) at 0.5, 1.0 or 3.0 μg/mL
# Method: as §4
# as §1, with “inoculum. […]” for “inoculum.”
# as §5
structure (smiles),measurement,setting,value
C[C@H](CCCO)C1CC[C@H]2[C@@H]3[C@H](N)C[C@@H]4C[C@H](N)CC[C@]4(C)[C@H]3C[C@H](N)[C@]12C (stereo partly shown),melting point,,200 to 202 °C
C[C@H](CCCN(C)Cc1ccccc1)[C@H]1CC[C@H]2[C@@H]3[C@H](OC(=O)CCN)C[C@@H]4C[C@H](OC(=O)CCN)CC[C@]4(C)[C@H]3C[C@H](OC(=O)CCN)[C@]12C.Cl.Cl.Cl.Cl [Compound 7],MIC,Gram-negative bacteria [1],70 µg/mL
same,MIC: concentration required to lower the MIC of erythromycin from 70 μg/mL to 1 μg/mL,E. coli (ATCC 10798) [2],2.5 µg/mL
same,a: concentration of cholic acid derivatives required to lower MIC of erythromycin to 1 μg/ML,Gram-negative bacteria [3],3 µg/mL
same,MIC,E. coli (ATCC 10798) [4],28 µg/mL
same,b: concentration of cholic acid derivatives required to lower MIC of novobiocin to 1 μg/ML,Gram-negative bacteria [5],13 µg/mL
C[C@H](CCCO)[C@H]1CC[C@H]2[C@@H]3[C@H](OCCCN)C[C@@H]4C[C@H](OCCCN)CC[C@]4(C)[C@H]3C[C@H](OCCCN)[C@]12C [Compound 10],concentration required to inhibit bacterial growth with antibiotic,[6],0.55 µg/mL
same,MBC,E. coli (ATCC 25922) [7],40 µg/mL
same,MIC: concentration required to lower the MIC of erythromycin from 70 μg/mL to 1 μg/mL,E. coli (ATCC 10798) [2],2 µg/mL
same,MBC (with erythromycin),E. coli (ATCC 10798) [2]; erythromycin sensitization,50 µg/mL
same,MBC,"E. coli (ATCC 10798) [4]; Escherichia coli, ATCC10798, read-out: MBC",60 µg/mL
same,concentration required to inhibit bacterial growth with antibiotic,[8],0.73 µg/mL
same,MIC,[9],2 µg/mL
same,MIC: concentration required to lower the MIC of erythromycin from 240 μg/mL to 5 μg/mL,"[10]; Table 7, P. aureginosa (ATCC 27853)",7 µg/mL
same,concentration required to inhibit bacterial growth with antibiotic,"[10]; Table 11, Pseudomonas aeruginosa ATCC 27853, erythromycin (by order) at 0.5, 1.0 or 3.0 μg/mL",2.1 µg/mL
same,FIC,"[11]; Table 13, rifampicin (by order)",0.030
same,concentration required to inhibit bacterial growth with antibiotic,"[11]; Table 13, rifampicin (by order) at 0.5, 1.0 or 3.0 μg/mL",0.16 µg/mL
same,MBC,[12],> 17 µg/mL
same,MBC,[13],50 µg/mL
same,concentration required to inhibit bacterial growth with antibiotic,[14],1.8 µg/mL
same,MHC,[15],100 µg/mL
same,concentration required to inhibit bacterial growth with antibiotic,E. coli (ATCC 25922) [16],1.5 µg/mL
same,concentration required to inhibit bacterial growth with antibiotic,[17],0.70 µg/mL
same,concentration required to inhibit bacterial growth with antibiotic,[18],0.84 µg/mL
same,concentration required to inhibit bacterial growth with antibiotic,[19],5.3 µg/mL
